The source made the active and inactive calls. No cut-off for these calls is given here.
Key:
[1] = target: Melanocortin receptor 4 (Homo sapiens) (UniProt P32245); experiment: Displacement of Eu-DTAP-NDP-alpha-MSH-NH2 from MC4 receptor expressed in human HEK293 cells at 10^-5 to 10^-12 M after 1 hr by time resolved fluorescence method; type: cell-based
[2] = target: T1, Gastrin/cholecystokinin type B receptor (Homo sapiens) (UniProt P32239); experiment: Displacement of Eu-DTAP-CCK8-NH2 from CCK2 receptor expressed in human HEK293 cells at 10^-5 to 10^-12 M after 1 hr by time resolved fluorescence method; type: cell-based
T1 sequence (whole entry): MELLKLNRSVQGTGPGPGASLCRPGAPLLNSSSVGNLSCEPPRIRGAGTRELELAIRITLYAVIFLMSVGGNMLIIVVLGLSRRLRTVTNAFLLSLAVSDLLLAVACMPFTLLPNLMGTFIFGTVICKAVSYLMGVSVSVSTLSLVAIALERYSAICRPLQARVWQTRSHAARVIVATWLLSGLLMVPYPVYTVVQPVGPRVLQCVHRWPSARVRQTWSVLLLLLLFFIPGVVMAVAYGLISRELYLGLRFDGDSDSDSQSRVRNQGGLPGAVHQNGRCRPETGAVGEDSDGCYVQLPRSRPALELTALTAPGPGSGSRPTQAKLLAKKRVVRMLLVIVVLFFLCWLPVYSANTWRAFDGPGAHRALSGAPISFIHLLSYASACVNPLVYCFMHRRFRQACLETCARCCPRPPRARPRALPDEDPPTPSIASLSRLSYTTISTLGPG

Melanocortin receptor 4 (Homo sapiens), sequence (P32245 whole entry): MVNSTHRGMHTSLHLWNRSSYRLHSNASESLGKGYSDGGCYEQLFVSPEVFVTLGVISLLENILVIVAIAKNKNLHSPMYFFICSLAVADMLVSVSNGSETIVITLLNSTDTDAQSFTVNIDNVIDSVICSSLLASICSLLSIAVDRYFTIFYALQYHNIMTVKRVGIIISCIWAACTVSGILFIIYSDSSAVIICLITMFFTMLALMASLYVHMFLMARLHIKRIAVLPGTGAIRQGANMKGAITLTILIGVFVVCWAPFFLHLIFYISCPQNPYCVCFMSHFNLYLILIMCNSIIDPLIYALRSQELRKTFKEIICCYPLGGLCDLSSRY

- Activity [1]: inactive
- Activity [2]: inactive
Structure (SMILES): NC(=O)[C@H](CO)NC(=O)CCCCCn1cc(CCCCOC[C@H]2O[C@@](COCCCCc3cn(CCCCCC(=O)N[C@@H](CO)C(N)=O)nn3)(O[C@H]3O[C@H](COCCCCc4cn(CCCCCC(=O)N[C@@H](CO)C(N)=O)nn4)[C@@H](OCCCCc4cn(CCCCCC(=O)N[C@@H](CO)C(N)=O)nn4)[C@H](OCCCCc4cn(CCCCCC(=O)N[C@@H](CO)C(N)=O)nn4)[C@H]3OCCCCc3cn(CCCCCC(=O)N[C@@H](CO)C(N)=O)nn3)[C@@H](OCCCCc3cn(CCCCCC(=O)N[C@@H](CO)C(N)=O)nn3)[C@@H]2OCCCCc2cn(CCCCCC(=O)N[C@@H](CO)C(N)=O)nn2)nn1
